# Columns and labels:
# Assay type in all cases: cell-based, human
# [1] = tested on: hES cells (SA121) in mTeSR culture system; assay: Immunostainings and OCT4/SOX17+ cell quantification in the mTeSR system; details: Chir 7 μM or D'Amour
# Experimental: hES cells (SA121) were cluster passaged from feeders (MEFs) to Matrigel (BD Biosciences) in mTeSR1 media ([…]) and passaged further with Dispase (BD Biosciences) according to the culture system protocol. DE was initiated once clusters started to touch each other Confluent cultures were washed once in RPMI1640 (Invitrogen) before 24 hour pre-treatment with 0,5-7μM CHIR99021 (Stemgent) in RPMI. Control cells were left untreated in RPMI and D'Amour cells were either left in RPMI or treated with AA (Peprotech)+Wnt3a (R&D Systems) without pre-treatment depending on experimental setup. After 24 hours, pretreated and control cells were washed once with RPMI before adding 100 ng/ml AA in RPMI. D'Amour cells were also treated with 100 ng/ml AA but with 0,2% FBS instead of B27. 24 h later, 2% B27 (Invitrogen) was added to the AA media for 2-3 d. Control cells were treated with B27 to prevent cell death and D'Amour cells with 2% FBS according to published protocol. Media was changed every day. Cells were washed in PBS+/+ and fixed in 4% formaldehyde for 30 min (10% formaline, VWR). The cells were then washed again three times in PBS and left in PBS (4° C.) until staining. Fixed cells were washed with PBS once, then permeabilized with 0.5% Triton X-100 in PBS for 6 min, washed in PBS and blocked with TNB buffer (0.1 M Tris-HCL pH 7.5, 0.15 M NaCl, 0.5% Blocking Reagent (Perkin Elmer)) for 30 min. Primary antibodies (goat-anti-SOX17 (AF1924, RnD Systems); goat-anti-Brachyury (AF2085, RnD Systems); mouse-anti-OCT4 (sc5279, SantaCruz Biotechnology); goat-anti-PDX1 (AB47383, Abcam)) were added in 0.1% TritonX-100+PBS for 1 h in RT or 4° C. O/N. After a thorough washing step in PBS, secondary antibodies were added together with DAPI in 0.1% Triton X-100+PBS for 45 min at RT, washed thoroughly in PBS and left in PBS until photodocumentation.
# SA121 and chIPS cells = assay: CHIR dose dependency: cell survival after titration and AA treatment; details: then 2 d AA
# Experimental: Brachyury expression was analysed after 24 h treatment in SA121 (FIG. 7A) and chIPS cells (FIG. 7C). SOX17 expression was analysed D3 in SA121 (FIG. 7B) and chIPS cells (FIG. 7D)).
# Confluent cultures were washed once in RPMI1640 (Invitrogen) before 24 hour pre-treatment with 0,5-7μM CHIR99021 (Stemgent) in RPMI. Control cells were left untreated in RPMI and D'Amour cells were either left in RPMI or treated with AA (Peprotech)+Wnt3a (R&D Systems) without pre-treatment depending on experimental setup.
# Chir was titrated at concentrations between 1-7 uM and analyzed after 24 h Chir treatment (D1) and after 2 d of following AA treatment (D3).
# chIPS4 cells = assay: Further differentiation of DE towards pancreatic endoderm, PDX1 by ICC and real-time PCR; details: seven days after induction of PE differentiation
# Experimental: When cells were further differentiated to PE, the DE protocol was applied in T75 cell culture flasks and reseeded after 4 d of DE culture at a density of 200 K in DE media. 1 d later, cells were washed once before addition of PE media (RPMI1640+12% KOSR+64 ng/ml bFGF) according to published protocol (Amen et al 2010). RNA samples were collected after 24 h pre-treatment (D1), after 1 day of AA treatment (D2) and after 1-2 d of AA+B27 treatment (D3-4). Total RNA was extracted with the Rneasy Plus Mini kit (Qiagen) and quantitative real-time PCR was performed using the StepOnePLus system (Applied Biosystems). Cells were washed in PBS+/+ and fixed in 4% formaldehyde for 30 min (10% formaline, VWR). The cells were then washed again three times in PBS and left in PBS (4° C.) until staining. Fixed cells were washed with PBS once, then permeabilized with 0.5% Triton X-100 in PBS for 6 min, washed in PBS and blocked with TNB buffer (0.1 M Tris-HCL pH 7.5, 0.15 M NaCl, 0.5% Blocking Reagent (Perkin Elmer)) for 30 min. […] Seven days after the induction of PE differentiation the cells were fixed and analyzed by ICC using a PDX1 specific antibody. […] In parallel, mRNA was collected from the cells and the PDX1 expression was analyzed by real-time PCR. […]
compound,measurement,setting,value
"Cc1c[nH]c(-c2cnc(NCCNc3ccc(C#N)cn3)nc2-c2ccc(Cl)cc2Cl)n1 [CHIR, CHIR99021]",Oct4+ cell quantification,"[1]; D3, Exp ME16b",6.97
same,Sox17+ cell quantification,"[1]; D3, Exp ME16b",62.62
same,Oct4+ cell quantification,"[1]; D3, Exp ME18b",2.53
same,Sox17+ cell quantification,"[1]; D3, Exp ME18b",82.87
same,Oct4+ cell quantification,"[1]; D3, Exp ME21a",0.95
same,Sox17+ cell quantification,"[1]; D3, Exp ME21a",91.36
same,Oct4+ cell quantification,"[1]; D3, Mean of three experiments",3.5
same,Sox17+ cell quantification,"[1]; D3, Mean of three experiments",79.0
same,cell survival D3,SA121 and chIPS cells; CHIR 7 uM 24 h,did not survive d3
same,cell survival D3,SA121 and chIPS cells; CHIR 0.5-1 uM 24 h,did not survive d3
same,PDX1 mRNA expression by real-time PCR,chIPS4 cells,clear expression
same,PDX1 staining by ICC,chIPS4 cells,evident
